Data from US20090099167A1, “Organic compounds” (Novartis Institutes for Biomedical Research, priority 2004, published 2009).

Biological target: T1, c-Kit (Homo sapiens, UniProt P10721)
T1 construct: whole cytoplasmic domain of c-Kit (aa 544-976); made in house; host or cells: Sf9 or High Five (baculovirus)
Assay: c-kit kinase inhibition
Type: biochemical
Conditions: Table 4

T1 sequence (P10721 544-976): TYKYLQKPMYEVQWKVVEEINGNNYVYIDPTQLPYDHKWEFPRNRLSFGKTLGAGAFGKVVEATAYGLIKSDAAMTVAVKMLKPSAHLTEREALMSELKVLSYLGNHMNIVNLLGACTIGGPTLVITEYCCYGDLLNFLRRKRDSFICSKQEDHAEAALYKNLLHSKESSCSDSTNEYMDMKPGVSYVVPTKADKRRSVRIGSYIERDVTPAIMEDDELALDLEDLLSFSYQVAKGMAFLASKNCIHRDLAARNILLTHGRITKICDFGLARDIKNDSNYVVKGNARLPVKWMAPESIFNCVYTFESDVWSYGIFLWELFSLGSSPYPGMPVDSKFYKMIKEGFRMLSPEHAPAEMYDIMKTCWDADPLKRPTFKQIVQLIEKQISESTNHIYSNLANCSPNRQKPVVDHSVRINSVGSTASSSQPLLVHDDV

| IC50 [µM] | Structure (SMILES) |
| --- | --- |
| < 10 | CN1CCN(c2ccc(-c3cnn4c(N)c(-c5ccsc5)cnc34)cc2)CC1 [Example 21, 3-[4-(4-Methyl-piperazin-1-yl)-phenyl]-6-thiophen-3-yl-pyrazolo[1,5-a]pyrimidin-7-ylamine] |
| < 10 | COc1cccc(-c2cnc3c(-c4cccc(N5CCN(C)CC5)c4)cnn3c2N)c1 [Example 24, 6-(3-Methoxy-phenyl)-3-[3-(4-methyl-piperazin-1-yl)-phenyl]-pyrazolo[1,5-a]pyrimidin-7-ylamine] |
